Here are results for twelve compounds from US12624039B2, “BTK inhibitors” (DIZAL (JIANGSU) PHARMACEUTICAL CO., LTD., priority 2020, dated 2026).

For one series, the target named is T1, Recombinant BTK(C481S) (Homo sapiens, UniProt Q06187, C481S).
T1 construct: purchased SignalChem
Kind of series: BTK C481S HTRF kinase assay. The settings on record: 30 min pre-incubation, 120 min reaction. Format: biochemical. The method, then: [The procedure below names another variant; the source lists this variant under the same test.] Recombinant BTK wild type (BTK WT) was purchased from Thermo fisher.
In brief, recombinant kinases were pre-incubated in the presence or absence of compound at room temperature for 30 minutes. The reaction was initiated by the addition of the ATP and substrate peptide which could be phosphorylated by kinases in the reaction. After 120 minutes incubation, the reaction was stopped by the addition of the detection reagent mix containing EDTA.
For orientation: TR-FRET usually uses a lanthanide donor and a delayed reading to cut background.

Another series deals with TMD-8 cells. Kind of series: TMD-8 anti-proliferation assay. Format: cell-based. The method, then: TMD-8 Anti-Proliferation Assay
TMD-8 cells were prepared in RPMI1640 media containing 10% foetal bovine, and plated in 384 well plates at 1500 cells per well, The cells were incubated overnight at 37° C., 5% CO2. After incubation, compounds with different concentration were added to the assay plates and incubate cells for a further 72 hours at 37° C., 5% CO2. Following 72 hours incubation, 15 μl of CellTiter 96® AQueous One Solution Reagent was added to each well and the plates incubated at room temperature for 30 mins. Cell viability was determined using the CellTiter-Glo (Promega, USA). The CellTiter-Glo assay was performed according to the manufacturer's instructions, and luminescence was determined in a multi-label reader (Envision, PerkinElmer, USA). The data were processed in XLfit software.

The nature of series [1]: Log D determination (octanol/phosphate buffer). Format: physicochemical. The conditions noted are these: 25° C. The method, then: 10 μL of working solution of each cassette is placed in order into respective 96-well rack position (Log D plate). Add 500 μL of saturated octanol into each vial of the above cap-less Log D plate followed by the addition of 500 μL of saturated phosphate buffer. Seal with a moulded PTFE/SIL 96-Well Plate Cover.
The samples are centrifuged at 4,000 rpm at 25° C. for 30 minutes to separate the phases. Pipette and syringe are used to pipette about 100 μL from the octanol and buffer phases to a new 96-well plate, respectively.
5 μL of octanol sample is transferred to a new 96-well plate, followed by addition of 495 μL of a mixture of H2O and acetonitrile containing internal standard (1:1) as 100 fold octanol samples. Vortex for 5 minutes at 1,000 rpm.
50 μL of 100 fold samples are transferred to new 96-well plate, followed by addition of 450 μL of a mixture of H2O and acetonitrile containing internal standard (1:1) as 1,000 fold octanol samples. Vortex for 5 minutes at 1,000 rpm.
The 1,000 folds octanol samples are serially diluted into 10,000, 100,000 and 1,000,000 folds with a mixture of H2O and acetonitrile containing internal standard (1:1).
50 μL of buffer samples are transferred to new 96-well plate, followed by addition of 450 μL of a mixture of H2O and acetonitrile containing internal standard (1:1) as 10 folds buffer samples. Vortex for 5 minutes at 1,000 rpm.
The 10 folds buffer samples are serially diluted into 100, 1,000 and 10,000 folds with a mixture of H2O and acetonitrile containing internal standard (1:1). The samples are evaluated by LC/MS/MS analysis. All compounds are tested in singlicate.
All calculations are carried out using Microsoft Excel. The concentrations of test compound in octanol/buffer solution are evaluated by LC/MS/MS. Calculate the Log D value of the test compound as follows:
[formula] DF means the dilution factor. Procedure for Protein Binding Measurements in Human Plasma by Using Equilibrium Dialysis

The next series can be described thus: DMSO solubility. Format: physicochemical.
For series [2], the target named is T2, BTK(WT) in HEK293-BTK(WT) cells (Homo sapiens, UniProt Q06187).
T2 construct: Full-length cDNAs of BTK containing C481S mutation was generated by mutagenesis; expressed in transfected cells
Kind of series: HEK293-BTK(WT) p-BTK ELISA. The conditions noted are these: 1.5 hour. Format: cell-based. The method, then:
(§1) The mutated BTK cDNAs were confirmed by sequencing. […] The transfected cells were selected in 2 μg/mL of puromycin. Stable polyclonal cell lines were confirmed by WB and used for further study. […] All the cells were maintained in a humidified incubator at 37° C. with 5% CO2.
(§2) The test compounds were added to the cells and cells were incubated for 1.5 hour at 37° C., 5% CO2. […] The plate was read on a Multiscan Spectrum reader set to 450 nm wavelengths. The data were processed in Graph Pad Prism software.
(In general: ELISA stands for enzyme-linked immunosorbent assay.)

Series [3] has as its target T3, BTK-C481S in HEK293-BTK(C481S) cells (Homo sapiens, UniProt Q06187, C481S).
T3 construct: Full-length cDNAs of BTK containing C481S mutation was generated by mutagenesis; expressed in transfected cells
Kind of series: HEK293-BTK(C481S) p-BTK ELISA. Format: cell-based. The conditions noted are these: 1.5 hour. On the procedure: as §1, §2

A short description of series [4]: Short oral absorption (SOA) assay in rats, brain penetration. Format: in vivo. The conditions noted are these: rat; for Kp: brain, AUCbrain/AUCplasma. The method, then:
Short Oral Absorption (SOA) Assay in Rats.
(§3) A Short oral absorption (SOA) model is an in-vivo screening model to identify brain penetration of a compound. To evaluate the potential of a compound to cross the blood-brain barrier in rats, total brain-to-plasma ratio (Kp,brain) was measured AUCbrain/AUCplasma. CSF-to-plasma ratio (Kp,CSF) was determined by either AUCCSF/AUCplasma or the average of CSF-to-plasma ratios at available time points after oral administration, respectively. Free fractions of in biological matrix were determined by in vitro plasma and brain binding assay in a separate study. Kp,uu,brain and Kp,uu,CSF were calculated by the following equations: (1) Kp,uu,brain=Kp, brain×fu,brain/fu,plasma; (2) Kp,uu,CSF=Kp,CSF/fu,plasma.

A short description of series [5]: In vitro plasma and brain binding assay (free fractions). Format: in vitro ADME, rat. On the procedure: as §3
The mark [6] stands for this setting: Kp,CSF/fu,plasma, read-out: Kp, uu CSF.
Where [7] appears, read: Kp,brain×fu,brain/fu,plasma, read-out: Kp, uu brain.
The mark [8] stands for this setting: rat brain free fraction, read-out: Rat fu, br (%).
The mark [9] stands for this setting: rat plasma free fraction, read-out: Rat fu, pl (%).

pIC50: −log10 of the molar value. In brackets after ≈: the same amount, converted by molar mass. Where two headings read alike, the source gives them in different places.

T1 sequence (Q06187 whole entry C481S): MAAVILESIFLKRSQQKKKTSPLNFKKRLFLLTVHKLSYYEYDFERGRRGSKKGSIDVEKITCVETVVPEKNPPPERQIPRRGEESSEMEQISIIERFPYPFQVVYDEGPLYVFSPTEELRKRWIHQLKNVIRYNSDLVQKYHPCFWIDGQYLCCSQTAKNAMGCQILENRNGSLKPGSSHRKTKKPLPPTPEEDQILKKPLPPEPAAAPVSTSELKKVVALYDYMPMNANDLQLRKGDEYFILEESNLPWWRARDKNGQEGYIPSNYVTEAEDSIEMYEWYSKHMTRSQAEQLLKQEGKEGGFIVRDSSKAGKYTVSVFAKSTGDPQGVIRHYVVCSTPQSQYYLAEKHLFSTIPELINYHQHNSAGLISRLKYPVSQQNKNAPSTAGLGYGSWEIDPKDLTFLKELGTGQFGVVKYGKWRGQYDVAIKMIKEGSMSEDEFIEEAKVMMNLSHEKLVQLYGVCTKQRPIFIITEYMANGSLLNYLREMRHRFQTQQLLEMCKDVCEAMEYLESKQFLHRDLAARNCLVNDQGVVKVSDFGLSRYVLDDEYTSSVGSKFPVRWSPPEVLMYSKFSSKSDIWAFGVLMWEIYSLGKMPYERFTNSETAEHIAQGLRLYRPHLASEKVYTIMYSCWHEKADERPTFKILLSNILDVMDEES
T3 sequence (Q06187 whole entry C481S): as above

As for `Nc1nccn2c(C3CCC(CO)OC3)nc(-c3ccc(Oc4cccc(F)c4F)cc3)c12` (single isomer, unassigned) [Compound 7, (5-(8-amino-1-(4-(2,3-difluorophenoxy)phenyl)imidazo[1,5-a]pyrazin-3-yl)tetrahydro-2H-pyran-2-yl)methanol], the figures for the negative-log IC50 (pIC50) on Recombinant BTK(C481S) and in the series with TMD-8 cells (72 hours) were 8.82 and 6.66, respectively. In series [1], the pH-dependent lipophilicity (logD) – broadly, the decadic logarithm of the distribution of all forms, ionised or not, between an organic phase and buffer at a given pH – amounted to 3.19. Besides, in the series “DMSO solubility”, the solubility – broadly, the dissolved amount per volume that the medium holds – amounted to 45.8 µM (≈ 20.7 µg/mL).

With `Nc1nccn2c(C3CCC(CO)OC3)nc(-c3ccc(Oc4ccccc4)c(F)c3F)c12` (single isomer, unassigned) [Compound 5, (5-(8-amino-1-(2,3-difluoro-4-phenoxyphenyl)imidazo[1,5-a]pyrazin-3-yl)tetrahydro-2H-pyran-2-yl)methanol], the pIC50 (in general, the negative decadic logarithm of the IC50, by convention in mol/L) was 8.27 at Recombinant BTK(C481S) and 6.99 with TMD-8 cells (72 hours). This compound also gave a log distribution coefficient (logD) in series [1] of 2.89. In “DMSO solubility”, this compound showed a solubility of 61.9 µM (≈ 28 µg/mL).

On to `Nc1nccn2c(C3CCC(CO)OC3)nc(-c3ccc(Oc4ccccc4)c(F)c3F)c12` (single isomer, unassigned) [Compound 4, (5-(8-amino-1-(2,3-difluoro-4-phenoxyphenyl)imidazo[1,5-a]pyrazin-3-yl)tetrahydro-2H-pyran-2-yl)methanol], for which the pIC50 on Recombinant BTK(C481S) was 9.21; in series [2] it was 7.73; in series [3], 7.07; with TMD-8 cells (72 hours), 7.79. For the same compound, the pH-dependent lipophilicity (logD) at 2 h in series [1] is 3.1. Besides, the solubility in the series “DMSO solubility” (kinetic from dmso stock) is 63.1 µM (≈ 28.6 µg/mL).

For the compound `Nc1nccn2c(C3CCC(CO)OC3)nc(-c3ccc(Oc4cccc(F)c4F)cc3)c12` (single isomer, unassigned) [Compound 6, (5-(8-amino-1-(4-(2,3-difluorophenoxy)phenyl)imidazo[1,5-a]pyrazin-3-yl)tetrahydro-2H-pyran-2-yl)methanol], the pIC50 at Recombinant BTK(C481S) was 9.38; in series [2] it was 7.48; in series [3] it was 7.12; in the series with TMD-8 cells (72 hours), 7.56. In series [1], the pH-dependent lipophilicity (logD) at 2 h worked out at 3.28. In “DMSO solubility” (kinetic from dmso stock), this compound displayed a solubility of 43.9 µM (≈ 19.9 µg/mL).

For the compound `Nc1ncnn2c(C3CCC(CO)OC3)nc(-c3ccc(Oc4cccc(F)c4F)cc3)c12` (stereo not drawn) [Compound 14, (5-(4-amino-5-(4-(2,3-difluorophenoxy)phenyl)imidazo[5,1-f][1,2,4]triazin-7-yl)tetrahydro-2H-pyran-2-yl)methanol], the negative logarithm of the IC50 (pIC50) was 9.07 at Recombinant BTK(C481S), 7.80 in series [2] and 7.44 in series [3]. For the same compound, in series [1], the log distribution coefficient (logD) at 2 h is 3.29. Besides, the concentration in solution in “DMSO solubility” (kinetic from dmso stock) (solubility) was 48 µM (≈ 21.8 µg/mL). Also, in series [4], the concentration ratio (Kp) – broadly, tissue or fluid exposure divided by exposure in the circulation – stood at 0.32. Further, the Kp uu in series [4] (setting [6]) worked out at 0.59; in series [4] (setting [7]), 0.23. The fraction unbound in series [5] (setting [8]) stood at 0.015; in series [5] (setting [9]), 0.02.

Regarding `Nc1ncnn2c(C3CCC(CO)OC3)nc(-c3ccc(Oc4ccccc4)cc3F)c12` (single isomer, unassigned) [Compound 10, Trans-(5-(4-amino-5-(2-fluoro-4-phenoxyphenyl)imidazo[5,1-f][1,2,4]triazin-7-yl)tetrahydro-2H-pyran-2-yl)methanol], the negative logarithm of the IC50 (pIC50) was 9.02 at Recombinant BTK(C481S), 7.22 in series [2], 6.77 in series [3] and 7.49 in the series on TMD-8 cells (72 hours). Moreover, the logD in series [1] is 3.07. Besides, the solubility in the series “DMSO solubility” is given as 20.5 µM (≈ 8.93 µg/mL). The compound further gave a Kp in series [4] of 0.38. Besides, the Kp uu in series [4] (setting [6]) was found to be 0.56; in series [4] (setting [7]), 0.23. The fraction unbound in series [5] (setting [8]) was 0.022; in series [5] (setting [9]), 0.037.

As for `Nc1nccn2c(C3CCC(CO)OC3)nc(-c3ccc(Oc4ccccc4)cc3)c12` (stereo not drawn) [Compound 1, (5-(8-amino-1-(4-phenoxyphenyl)imidazo[1,5-a]pyrazin-3-yl)tetrahydro-2H-pyran-2-yl)methanol], the negative-log IC50 (pIC50) on Recombinant BTK(C481S) is 8.97; in the series with TMD-8 cells (Homo sapiens, TMD8, 72 h), 7.62. In series [1], this compound registered a log distribution coefficient (logD) at 2 h of 3.14. This compound returned a solubility in the series “DMSO solubility” (kinetic from dmso stock) of 51.3 µM (≈ 21.4 µg/mL).

For the compound `Nc1ncnn2c(C3CCC(CO)OC3)nc(-c3ccc(Oc4ccccc4)cc3F)c12` (single isomer, unassigned) [Compound 11, Trans-(5-(4-amino-5-(2-fluoro-4-phenoxyphenyl)imidazo[5,1-f][1,2,4]triazin-7-yl)tetrahydro-2H-pyran-2-yl)methanol], the negative logarithm of the IC50 (pIC50) at Recombinant BTK(C481S) was 8.30; with TMD-8 cells (72 hours), 7.15. The compound further gave a log distribution coefficient (logD) in series [1] of 3.09. In “DMSO solubility”, this compound gave a solubility of less than 1.6 µM.

As to `Nc1ncnn2c(C3CCC(CO)OC3)nc(-c3ccc(Oc4ccccc4)c(F)c3F)c12` (stereo not drawn) [Compound 12, (5-(4-amino-5-(2,3-difluoro-4-phenoxyphenyl)imidazo[1,5-f][1,2,4]triazin-7-yl)tetrahydro-2H-pyran-2-yl)methanol], the figures for the pIC50 (at Recombinant BTK(C481S); in series [2]; in series [3]) were 9.57, 7.75 and 7.33, respectively. For the same compound, in series [1], the log distribution coefficient (logD) at 2 h was found to be 3.18. For the same compound, the solubility in the series “DMSO solubility” was 45.7 µM (≈ 20.7 µg/mL).

As for `Nc1nccn2c(C3CCC(CO)OC3)nc(-c3ccc(Oc4ccccc4)cc3F)c12` (single isomer, unassigned) [Compound 3, Trans-(5-(8-amino-1-(2-fluoro-4-phenoxyphenyl)imidazo[1,5-a]pyrazin-3-yl)tetrahydro-2H-pyran-2-yl)methanol], the pIC50 at Recombinant BTK(C481S) was 8.18; with TMD-8 cells (72 hours), 6.97. Besides, the logD in series [1] was found to be 2.88. The solubility in the series “DMSO solubility” is recorded as 34.1 µM (≈ 14.8 µg/mL).

Take `Nc1ncnn2c(C3CCC(CO)OC3)nc(-c3ccc(Oc4ccccc4)cc3F)c12` (single isomer, unassigned) [Compound 9, (5-(4-amino-5-(2-fluoro-4-phenoxyphenyl)imidazo[1,5-a][1,2,4]triazin-7-yl)tetrahydro-2H-pyran-2-yl)methanol]: the pIC50 at Recombinant BTK(C481S) is 8.19; in the series on TMD-8 cells (72 hours), 6.79. The log distribution coefficient (logD) in series [1] is 3.00. The compound further displayed a solubility in the series “DMSO solubility” of 20.3 µM (≈ 8.84 µg/mL).

With `Nc1ncnn2c(C3CCC(CO)OC3)nc(-c3ccc(Oc4ccccc4)cc3F)c12` (single isomer, unassigned) [Compound 8, (5-(4-amino-5-(2-fluoro-4-phenoxyphenyl)imidazo[5,1-f][1,2,4]triazin-7-yl)tetrahydro-2H-pyran-2-yl)methanol], the values for the pIC50 on Recombinant BTK(C481S) and with TMD-8 cells (72 hours) were 8.55 and 7.11, respectively. Also, the logD at 2 h in series [1] came to 3.1. Also, the solubility in “DMSO solubility” is recorded as 21.0 µM (≈ 9.14 µg/mL).
